Tests used:
Assay type in all cases: cell-based
[1] = target: proteins of HEK293T cells transiently overexpressing caspase-6 (Homo sapiens, UniProt P48643); details: protein CCT5 (P48643)
[2] = target: proteins of HEK293T cells transiently overexpressing caspase-6 (Homo sapiens, UniProt Q9P2E9); details: exp_ref Probe; protein RRBP1 (Q9P2E9); analysis C6
[3] = target: T1, proteins of HEK293T cells transiently overexpressing caspase-6 (Homo sapiens, UniProt Q9BQG0); details: protein MYBBP1A (Q9BQG0)
T1 sequence (Q9BQG0 1-1328): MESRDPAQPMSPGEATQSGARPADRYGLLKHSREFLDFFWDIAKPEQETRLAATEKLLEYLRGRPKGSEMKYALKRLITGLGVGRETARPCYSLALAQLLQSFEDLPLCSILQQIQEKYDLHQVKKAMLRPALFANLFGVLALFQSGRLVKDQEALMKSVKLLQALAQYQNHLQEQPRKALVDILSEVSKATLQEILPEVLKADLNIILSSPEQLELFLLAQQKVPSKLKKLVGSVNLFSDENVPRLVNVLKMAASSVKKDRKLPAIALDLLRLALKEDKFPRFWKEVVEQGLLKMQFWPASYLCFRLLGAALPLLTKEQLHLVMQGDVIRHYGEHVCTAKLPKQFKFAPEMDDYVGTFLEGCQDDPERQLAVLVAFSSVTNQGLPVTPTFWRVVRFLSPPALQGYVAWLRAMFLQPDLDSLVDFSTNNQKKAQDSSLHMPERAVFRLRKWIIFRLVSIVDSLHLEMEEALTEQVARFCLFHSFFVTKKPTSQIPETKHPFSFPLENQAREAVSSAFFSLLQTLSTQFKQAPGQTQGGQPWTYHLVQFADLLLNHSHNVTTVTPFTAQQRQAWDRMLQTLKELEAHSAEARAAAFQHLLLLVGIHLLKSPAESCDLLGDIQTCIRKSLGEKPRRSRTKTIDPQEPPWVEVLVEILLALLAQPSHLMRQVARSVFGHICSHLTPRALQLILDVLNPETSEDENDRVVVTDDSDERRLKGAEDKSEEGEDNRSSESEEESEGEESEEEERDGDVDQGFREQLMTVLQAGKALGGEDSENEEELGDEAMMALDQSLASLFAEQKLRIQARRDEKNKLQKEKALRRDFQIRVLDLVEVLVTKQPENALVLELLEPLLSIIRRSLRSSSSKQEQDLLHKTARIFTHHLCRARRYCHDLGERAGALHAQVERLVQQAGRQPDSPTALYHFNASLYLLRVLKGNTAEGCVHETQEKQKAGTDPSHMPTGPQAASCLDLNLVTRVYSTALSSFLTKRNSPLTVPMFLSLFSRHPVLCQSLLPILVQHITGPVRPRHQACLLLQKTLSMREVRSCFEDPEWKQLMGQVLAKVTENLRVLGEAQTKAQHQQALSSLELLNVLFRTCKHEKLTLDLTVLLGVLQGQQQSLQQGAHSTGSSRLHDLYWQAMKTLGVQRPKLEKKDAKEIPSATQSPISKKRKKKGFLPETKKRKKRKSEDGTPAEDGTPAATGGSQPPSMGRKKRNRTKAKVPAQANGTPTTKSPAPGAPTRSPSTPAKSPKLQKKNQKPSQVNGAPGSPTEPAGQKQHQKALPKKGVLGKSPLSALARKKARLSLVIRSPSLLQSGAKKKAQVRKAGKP

[4] = target: proteins of HEK293T cells transiently overexpressing caspase-6 (Homo sapiens, UniProt P07437); details: protein TUBB (P07437)
[5] = target: proteins of HEK293T cells transiently overexpressing caspase-6 (Homo sapiens, UniProt P17844); details: exp_ref Probe; protein DDX5 (P17844); analysis C6
[6] = target: proteins of HEK293T cells transiently overexpressing caspase-6 (Homo sapiens, UniProt O75390); details: exp_ref Probe; protein CS (O75390); analysis C6
[7] = target: proteins of HEK293T cells transiently overexpressing caspase-6 (Homo sapiens, UniProt P08133); details: exp_ref Probe; protein ANXA6 (P08133); analysis C6
[8] = target: proteins of HEK293T cells transiently overexpressing caspase-6 (Homo sapiens, UniProt Q16881); details: exp_ref Probe; protein TXNRD1 (Q16881); analysis C6
[9] = target: proteins of HEK293T cells transiently overexpressing caspase-6 (Homo sapiens, UniProt P14314); details: Probe; protein PRKCSH P14314
[10] = target: proteins of HEK293T cells transiently overexpressing caspase-6 (Homo sapiens, UniProt P49411); details: exp_ref Probe; protein TUFM (P49411); analysis C6
[11] = target: proteins of HEK293T cells transiently overexpressing caspase-6 (Homo sapiens, UniProt Q14152); details: exp_ref Probe; protein EIF3A (Q14152); analysis C6
[12] = target: proteins of HEK293T cells transiently overexpressing caspase-6 (Homo sapiens, UniProt Q9NX40); details: protein OCIAD1 (Q9NX40); exp_ref Probe; analysis C6
[13] = target: proteins of HEK293T cells transiently overexpressing caspase-6 (Homo sapiens, UniProt Q9BZZ5); details: exp_ref Probe; protein API5 (Q9BZZ5); analysis C6
[14] = target: proteins of HEK293T cells transiently overexpressing caspase-6 (Homo sapiens, UniProt P09874); details: protein PARP1 (P09874)
[15] = target: proteins of HEK293T cells transiently overexpressing caspase-6 (Homo sapiens, UniProt Q96SB4); details: protein SRPK1 (Q96SB4); exp_ref Probe; analysis C6

proteins of HEK293T cells transiently overexpressing caspase-6 (Homo sapiens, UniProt P48643), sequence (P48643 whole entry): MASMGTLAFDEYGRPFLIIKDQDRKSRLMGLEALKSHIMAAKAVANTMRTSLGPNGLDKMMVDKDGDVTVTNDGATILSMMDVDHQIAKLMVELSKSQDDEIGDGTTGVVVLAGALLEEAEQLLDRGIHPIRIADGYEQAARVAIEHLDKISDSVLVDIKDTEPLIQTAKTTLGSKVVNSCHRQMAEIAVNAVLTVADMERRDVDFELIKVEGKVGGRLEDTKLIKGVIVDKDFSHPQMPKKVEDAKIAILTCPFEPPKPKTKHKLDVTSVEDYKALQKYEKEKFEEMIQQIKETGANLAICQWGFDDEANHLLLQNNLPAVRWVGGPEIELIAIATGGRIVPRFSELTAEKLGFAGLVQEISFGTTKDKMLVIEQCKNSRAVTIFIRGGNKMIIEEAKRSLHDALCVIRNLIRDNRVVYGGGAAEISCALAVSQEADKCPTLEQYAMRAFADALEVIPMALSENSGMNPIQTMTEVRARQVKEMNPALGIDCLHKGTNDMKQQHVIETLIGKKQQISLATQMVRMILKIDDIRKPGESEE
proteins of HEK293T cells transiently overexpressing caspase-6 (Homo sapiens, UniProt P07437), sequence (P07437 whole entry): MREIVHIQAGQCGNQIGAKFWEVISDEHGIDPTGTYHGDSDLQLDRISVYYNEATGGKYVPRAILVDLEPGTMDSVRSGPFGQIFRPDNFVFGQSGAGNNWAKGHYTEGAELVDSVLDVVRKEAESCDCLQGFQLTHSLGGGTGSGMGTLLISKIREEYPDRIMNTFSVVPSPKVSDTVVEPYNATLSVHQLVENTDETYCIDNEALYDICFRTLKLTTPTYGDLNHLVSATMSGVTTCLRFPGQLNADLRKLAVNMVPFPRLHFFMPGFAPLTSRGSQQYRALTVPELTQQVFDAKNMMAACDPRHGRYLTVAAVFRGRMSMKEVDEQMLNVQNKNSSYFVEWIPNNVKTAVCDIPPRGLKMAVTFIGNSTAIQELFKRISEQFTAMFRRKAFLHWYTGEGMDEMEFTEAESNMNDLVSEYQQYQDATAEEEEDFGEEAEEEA
proteins of HEK293T cells transiently overexpressing caspase-6 (Homo sapiens, UniProt P09874), sequence (P09874 whole entry): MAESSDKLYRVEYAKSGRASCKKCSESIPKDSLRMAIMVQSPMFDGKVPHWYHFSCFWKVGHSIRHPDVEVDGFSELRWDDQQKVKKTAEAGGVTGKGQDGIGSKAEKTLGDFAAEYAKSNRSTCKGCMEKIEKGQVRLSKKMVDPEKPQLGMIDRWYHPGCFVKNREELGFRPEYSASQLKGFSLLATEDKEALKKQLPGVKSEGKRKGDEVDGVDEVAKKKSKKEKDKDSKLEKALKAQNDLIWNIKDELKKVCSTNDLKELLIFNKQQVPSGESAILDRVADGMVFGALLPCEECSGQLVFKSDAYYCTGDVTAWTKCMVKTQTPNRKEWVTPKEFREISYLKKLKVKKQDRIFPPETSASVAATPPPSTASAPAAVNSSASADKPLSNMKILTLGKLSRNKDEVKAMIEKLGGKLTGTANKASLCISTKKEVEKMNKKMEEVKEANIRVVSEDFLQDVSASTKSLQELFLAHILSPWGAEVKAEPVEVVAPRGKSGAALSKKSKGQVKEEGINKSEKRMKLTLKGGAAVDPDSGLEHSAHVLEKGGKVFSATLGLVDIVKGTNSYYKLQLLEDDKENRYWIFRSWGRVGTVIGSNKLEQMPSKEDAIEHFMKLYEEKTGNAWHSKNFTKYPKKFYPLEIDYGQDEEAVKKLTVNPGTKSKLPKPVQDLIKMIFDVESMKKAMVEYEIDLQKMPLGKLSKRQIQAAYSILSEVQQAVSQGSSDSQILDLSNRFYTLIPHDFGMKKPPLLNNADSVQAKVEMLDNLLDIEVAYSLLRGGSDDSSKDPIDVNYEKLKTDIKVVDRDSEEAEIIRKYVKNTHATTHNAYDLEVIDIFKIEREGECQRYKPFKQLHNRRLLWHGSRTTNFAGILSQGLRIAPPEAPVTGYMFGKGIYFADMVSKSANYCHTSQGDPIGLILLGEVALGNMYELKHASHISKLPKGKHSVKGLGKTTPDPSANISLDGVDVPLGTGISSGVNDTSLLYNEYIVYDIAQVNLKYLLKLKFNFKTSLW
proteins of HEK293T cells transiently overexpressing caspase-6 (Homo sapiens, UniProt Q14152), sequence (Q14152 whole entry): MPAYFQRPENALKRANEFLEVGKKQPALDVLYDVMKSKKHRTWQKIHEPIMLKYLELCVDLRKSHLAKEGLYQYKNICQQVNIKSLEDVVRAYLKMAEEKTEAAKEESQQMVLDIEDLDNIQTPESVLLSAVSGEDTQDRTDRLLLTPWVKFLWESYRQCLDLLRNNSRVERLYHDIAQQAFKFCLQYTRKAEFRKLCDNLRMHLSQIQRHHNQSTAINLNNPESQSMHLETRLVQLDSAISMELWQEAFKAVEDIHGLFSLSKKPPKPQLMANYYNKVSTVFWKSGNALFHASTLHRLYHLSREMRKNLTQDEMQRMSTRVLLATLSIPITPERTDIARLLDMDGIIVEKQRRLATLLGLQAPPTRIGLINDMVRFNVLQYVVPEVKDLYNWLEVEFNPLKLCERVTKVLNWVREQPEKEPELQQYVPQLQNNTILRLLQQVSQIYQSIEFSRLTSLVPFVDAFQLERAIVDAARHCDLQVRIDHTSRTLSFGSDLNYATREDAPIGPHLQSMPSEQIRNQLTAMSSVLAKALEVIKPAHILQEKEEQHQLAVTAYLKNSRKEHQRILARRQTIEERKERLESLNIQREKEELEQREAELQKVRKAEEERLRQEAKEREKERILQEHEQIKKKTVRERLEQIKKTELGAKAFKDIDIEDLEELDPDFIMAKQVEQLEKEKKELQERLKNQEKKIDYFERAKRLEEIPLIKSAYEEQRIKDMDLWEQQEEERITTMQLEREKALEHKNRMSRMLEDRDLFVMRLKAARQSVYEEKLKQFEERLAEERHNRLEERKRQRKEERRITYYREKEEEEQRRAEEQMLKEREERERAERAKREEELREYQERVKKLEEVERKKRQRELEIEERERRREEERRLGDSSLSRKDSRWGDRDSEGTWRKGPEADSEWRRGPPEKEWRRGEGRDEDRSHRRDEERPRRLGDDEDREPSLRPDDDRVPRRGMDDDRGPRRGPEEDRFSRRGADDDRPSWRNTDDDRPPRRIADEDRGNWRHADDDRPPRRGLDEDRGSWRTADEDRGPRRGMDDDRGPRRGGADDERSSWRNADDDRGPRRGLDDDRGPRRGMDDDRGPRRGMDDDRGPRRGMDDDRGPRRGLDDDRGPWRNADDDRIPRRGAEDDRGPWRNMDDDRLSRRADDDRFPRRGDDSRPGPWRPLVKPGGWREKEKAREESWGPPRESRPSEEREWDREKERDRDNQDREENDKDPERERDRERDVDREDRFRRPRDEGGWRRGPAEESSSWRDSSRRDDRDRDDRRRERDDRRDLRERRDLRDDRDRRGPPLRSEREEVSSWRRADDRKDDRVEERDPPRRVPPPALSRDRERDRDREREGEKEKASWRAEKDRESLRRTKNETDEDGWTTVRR
proteins of HEK293T cells transiently overexpressing caspase-6 (Homo sapiens, UniProt O75390), sequence (O75390 28-466): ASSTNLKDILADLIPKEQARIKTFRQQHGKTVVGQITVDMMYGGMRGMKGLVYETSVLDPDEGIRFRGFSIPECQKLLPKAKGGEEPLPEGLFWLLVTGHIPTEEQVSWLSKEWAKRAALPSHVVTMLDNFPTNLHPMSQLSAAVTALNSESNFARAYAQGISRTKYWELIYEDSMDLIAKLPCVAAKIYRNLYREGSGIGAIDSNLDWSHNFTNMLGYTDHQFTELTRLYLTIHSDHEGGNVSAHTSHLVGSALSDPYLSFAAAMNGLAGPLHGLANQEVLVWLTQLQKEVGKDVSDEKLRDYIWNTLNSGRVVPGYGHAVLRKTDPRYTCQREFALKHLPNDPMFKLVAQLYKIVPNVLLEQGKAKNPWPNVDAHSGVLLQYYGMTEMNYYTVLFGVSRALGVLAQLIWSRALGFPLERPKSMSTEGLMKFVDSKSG
proteins of HEK293T cells transiently overexpressing caspase-6 (Homo sapiens, UniProt P14314), sequence (P14314 15-528): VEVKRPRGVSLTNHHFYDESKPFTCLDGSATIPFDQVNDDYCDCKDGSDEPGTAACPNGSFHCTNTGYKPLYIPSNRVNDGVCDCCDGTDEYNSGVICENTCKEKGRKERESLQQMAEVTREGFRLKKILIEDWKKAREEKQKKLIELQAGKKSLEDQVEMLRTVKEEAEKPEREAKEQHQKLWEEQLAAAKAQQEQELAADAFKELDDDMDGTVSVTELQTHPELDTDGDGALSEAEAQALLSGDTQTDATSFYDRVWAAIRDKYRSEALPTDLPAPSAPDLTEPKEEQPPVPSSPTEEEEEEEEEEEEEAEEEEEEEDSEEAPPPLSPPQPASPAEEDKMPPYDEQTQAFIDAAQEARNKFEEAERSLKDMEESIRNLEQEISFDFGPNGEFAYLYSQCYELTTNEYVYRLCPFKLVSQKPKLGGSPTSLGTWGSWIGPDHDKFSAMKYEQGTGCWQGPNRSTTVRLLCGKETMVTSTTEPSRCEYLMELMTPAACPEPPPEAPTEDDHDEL
proteins of HEK293T cells transiently overexpressing caspase-6 (Homo sapiens, UniProt Q16881), sequence (Q16881 whole entry): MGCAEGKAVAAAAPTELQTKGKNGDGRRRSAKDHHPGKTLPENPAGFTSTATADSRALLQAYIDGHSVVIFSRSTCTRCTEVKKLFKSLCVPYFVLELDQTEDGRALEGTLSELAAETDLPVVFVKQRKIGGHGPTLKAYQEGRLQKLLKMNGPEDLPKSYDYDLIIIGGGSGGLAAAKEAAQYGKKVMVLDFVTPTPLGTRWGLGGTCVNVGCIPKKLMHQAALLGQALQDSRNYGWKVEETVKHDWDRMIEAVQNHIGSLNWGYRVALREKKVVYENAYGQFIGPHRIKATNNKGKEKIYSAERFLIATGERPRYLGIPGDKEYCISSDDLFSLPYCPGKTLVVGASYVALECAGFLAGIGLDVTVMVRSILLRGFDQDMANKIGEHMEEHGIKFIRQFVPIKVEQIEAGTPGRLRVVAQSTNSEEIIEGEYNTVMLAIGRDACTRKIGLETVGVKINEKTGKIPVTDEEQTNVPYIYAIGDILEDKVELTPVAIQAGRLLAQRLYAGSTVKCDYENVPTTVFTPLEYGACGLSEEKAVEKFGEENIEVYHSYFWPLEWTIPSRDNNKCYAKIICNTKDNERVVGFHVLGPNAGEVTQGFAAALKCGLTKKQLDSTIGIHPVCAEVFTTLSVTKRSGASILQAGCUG

`C#CCOc1ccc([C@@H]2C[C@@H](C(=O)Nc3ccc(OC(F)(F)F)cc3)CN(S(=O)(=O)C=C)C2)cc1` (relative stereo) [13-t] was tested, and the enrich.exp.med ([1]; exp_ref Probe, analysis C6) was 0.7352, the enrich.exp.med.lin [1] was 1.665 and the enrich.exp.med.log2 [1] was 0.7352. For the same compound, the enrich.exp.med [2] was 0.4694, the enrich.exp.med ([3]; exp_ref Probe, analysis C6) was 1.154 and the enrich.exp.med.lin [3] was 2.225. The enrich.exp.med.log2 [3] was 1.154, the enrich.exp.med ([4]; exp_ref Probe, analysis C6) was 1.184 and the enrich.exp.med.lin [4] was 2.273. It also gave an enrich.exp.med.log2 [4] of 1.184, an enrich.exp.med [5] of -0.0188 and an enrich.exp.med [6] of -0.1126. The enrich.exp.med [7] was 0.01987, the enrich.exp.med [8] was -0.009915 and the enrich.exp.med [9] was -0.8366. For the same compound, the enrich.exp.med [10] was 0.04694, the enrich.exp.med [11] was 0.8938 and the enrich.exp.med [12] was 2.033. For the same compound, the enrich.exp.med [13] was 0.9484, the enrich.exp.med ([14]; exp_ref Probe, analysis C6) was 0.2769 and the enrich.exp.med.lin [14] was 1.2116. For the same compound, the enrich.exp.med.log2 [14] was 0.2769 and the enrich.exp.med [15] was 1.262.

Reference: publication PMC10176470, “Engaging a Non-catalytic Cysteine Residue Drives Potent and Selective Inhibition of Caspase-6” (Journal of the American Chemical Society, 2023)
